Experimental data reported in article PMC9762331 (Cancer Discovery, 2021).
Entries after “also recorded” stand apart in the source; their conditions may differ.

Columns and labels:
[1] = system: p110a in PIK3CA-mutant breast cancer lines; settings: treatment for 24 hours
[2] = system: HER2-negative PIK3CA-mutant breast tumor lines (n = 10); assay: ATP cell viability, HER2-negative PIK3CA-mutant breast lines; format: cell-based; settings: 5 days
[3] = system: HER2-positive PIK3CA-mutant breast tumor lines (n = 6); assay: ATP cell viability, HER2-positive PIK3CA-mutant breast lines; format: cell-based; settings: HER2 amplified PIK3CA-mutant cell lines, 5 days
[4] = molecular target: membrane-associated p110a in p110a-mutant HCC1954 xenograft model (Homo sapiens, UniProt P42336, H1047R); assay: Membrane-associated p110a in HCC1954 xenograft tumors; format: in vivo, mouse
membrane-associated p110a in p110a-mutant HCC1954 xenograft model, sequence (P42336 whole entry H1047R): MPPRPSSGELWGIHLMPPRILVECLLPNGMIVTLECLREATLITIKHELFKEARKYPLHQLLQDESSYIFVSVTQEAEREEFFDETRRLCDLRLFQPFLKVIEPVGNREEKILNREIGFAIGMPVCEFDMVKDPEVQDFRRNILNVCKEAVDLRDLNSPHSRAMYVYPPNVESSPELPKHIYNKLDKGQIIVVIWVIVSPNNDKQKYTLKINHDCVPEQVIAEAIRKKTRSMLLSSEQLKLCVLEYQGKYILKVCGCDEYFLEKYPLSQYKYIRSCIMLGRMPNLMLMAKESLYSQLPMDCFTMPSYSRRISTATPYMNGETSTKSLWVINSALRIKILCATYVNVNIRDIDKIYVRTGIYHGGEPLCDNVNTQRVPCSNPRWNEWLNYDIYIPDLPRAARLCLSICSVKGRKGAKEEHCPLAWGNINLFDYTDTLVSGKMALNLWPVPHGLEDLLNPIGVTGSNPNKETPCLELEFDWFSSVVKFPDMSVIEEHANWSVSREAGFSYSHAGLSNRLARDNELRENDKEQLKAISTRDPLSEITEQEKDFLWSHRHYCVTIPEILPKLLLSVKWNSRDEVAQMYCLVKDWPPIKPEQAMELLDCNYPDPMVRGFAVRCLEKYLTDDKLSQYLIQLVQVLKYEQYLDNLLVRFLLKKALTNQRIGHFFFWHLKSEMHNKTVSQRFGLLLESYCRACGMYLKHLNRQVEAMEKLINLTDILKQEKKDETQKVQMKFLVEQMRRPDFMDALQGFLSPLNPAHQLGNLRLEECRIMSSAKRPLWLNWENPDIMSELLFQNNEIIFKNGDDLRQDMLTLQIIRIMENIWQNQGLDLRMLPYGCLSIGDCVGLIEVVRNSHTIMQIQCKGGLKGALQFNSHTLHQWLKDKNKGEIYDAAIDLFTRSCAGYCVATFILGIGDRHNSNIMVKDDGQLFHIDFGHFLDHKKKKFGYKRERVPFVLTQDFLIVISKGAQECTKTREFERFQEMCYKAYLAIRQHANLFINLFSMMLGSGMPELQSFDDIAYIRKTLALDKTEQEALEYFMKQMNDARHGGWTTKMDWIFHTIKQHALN

[5] = system: primary human hepatocytes; assay: Cytotoxicity in primary human hepatocytes; format: cell-based; settings: tested up to 100 μmol/L
[6] = system: PIK3CA E545K-mutant MCF7 cells; assay: CyQuant growth rate inhibition; format: cell-based; settings: all combination treatments (± E2, ± 0.15 μmol/L palbociclib)
[7] = system: pAKT in HER2-amplified PIK3CA-mutant cells (HCC1954, HCC202, MDA-MB-453); assay: pAKT Western blot time course; format: cell-based; settings: 0.5 μmol/L GDC-0077 or 1 μmol/L BYL719
[8] = molecular target: H1047R mutant p110a in HCC1954 parental cells (Homo sapiens, UniProt P42336, H1047R); settings: 24 hours, 500 nmol/L, P = 0.00016
H1047R mutant p110a in HCC1954 parental cells, sequence (P42336 whole entry H1047R): as above
H1047R mutant p110a in HCC1954 parental cells, sequence (O00459 whole entry partner): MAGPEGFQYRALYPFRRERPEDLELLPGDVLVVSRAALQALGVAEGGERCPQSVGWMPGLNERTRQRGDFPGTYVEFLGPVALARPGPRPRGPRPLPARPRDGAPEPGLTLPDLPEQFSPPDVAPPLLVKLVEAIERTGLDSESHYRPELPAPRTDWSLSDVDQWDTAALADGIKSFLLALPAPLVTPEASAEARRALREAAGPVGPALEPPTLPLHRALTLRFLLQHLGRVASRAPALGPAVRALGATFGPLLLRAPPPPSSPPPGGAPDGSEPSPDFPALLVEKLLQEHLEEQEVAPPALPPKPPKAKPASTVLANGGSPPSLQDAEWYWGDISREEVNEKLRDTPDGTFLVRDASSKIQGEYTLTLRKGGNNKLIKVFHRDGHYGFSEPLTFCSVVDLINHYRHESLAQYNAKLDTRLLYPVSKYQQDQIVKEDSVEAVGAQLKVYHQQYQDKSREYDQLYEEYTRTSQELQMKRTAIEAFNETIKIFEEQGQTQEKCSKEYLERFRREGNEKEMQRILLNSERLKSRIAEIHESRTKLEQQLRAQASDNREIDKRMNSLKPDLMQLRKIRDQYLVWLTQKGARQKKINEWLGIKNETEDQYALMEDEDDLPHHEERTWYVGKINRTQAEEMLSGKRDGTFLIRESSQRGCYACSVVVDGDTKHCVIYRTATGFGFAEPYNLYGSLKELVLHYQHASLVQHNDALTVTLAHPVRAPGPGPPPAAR

[9] = system: HCC1954, KPL-4, and HCI-003 PDX; assay: Efficacy in PIK3CA-mutant xenograft and PDX models; format: in vivo, mouse; settings: HCC1954, KPL-4, HCI-003 PDX; dosed orally and daily
[10] = letrozole ± palbociclib portion of the study; cited from earlier work
[11] = system: SW48 isogenic PIK3CA-mutant and parental WT cells; assay: Potency comparison in SW48 isogenic mutant versus WT cells; format: cell-based, human; settings: for potency differential in mutant versus WT isogenic SW48 cells: viability EC50, mutant versus WT
[12] = molecular target: p110a protein in PIK3CA H1047R-mutant HCC1954 cells (Homo sapiens, UniProt P42336, H1047R); assay: p110a Western blot, HCC1954 cells; format: cell-based; settings: treatment up to 8 hours
p110a protein in PIK3CA H1047R-mutant HCC1954 cells, sequence (P42336 whole entry H1047R): as the sequence (P42336 whole entry H1047R) above

[13] = molecular target: p110a in PIK3CA-WT HDQ-P1 cells (Homo sapiens, UniProt P42336); settings: Western blot, 8 hours
p110a in PIK3CA-WT HDQ-P1 cells, sequence (P42336 whole entry): as the sequence (P42336 whole entry H1047R) above, with R1047H counted along it
p110a in PIK3CA-WT HDQ-P1 cells, sequence (P27986 whole entry partner): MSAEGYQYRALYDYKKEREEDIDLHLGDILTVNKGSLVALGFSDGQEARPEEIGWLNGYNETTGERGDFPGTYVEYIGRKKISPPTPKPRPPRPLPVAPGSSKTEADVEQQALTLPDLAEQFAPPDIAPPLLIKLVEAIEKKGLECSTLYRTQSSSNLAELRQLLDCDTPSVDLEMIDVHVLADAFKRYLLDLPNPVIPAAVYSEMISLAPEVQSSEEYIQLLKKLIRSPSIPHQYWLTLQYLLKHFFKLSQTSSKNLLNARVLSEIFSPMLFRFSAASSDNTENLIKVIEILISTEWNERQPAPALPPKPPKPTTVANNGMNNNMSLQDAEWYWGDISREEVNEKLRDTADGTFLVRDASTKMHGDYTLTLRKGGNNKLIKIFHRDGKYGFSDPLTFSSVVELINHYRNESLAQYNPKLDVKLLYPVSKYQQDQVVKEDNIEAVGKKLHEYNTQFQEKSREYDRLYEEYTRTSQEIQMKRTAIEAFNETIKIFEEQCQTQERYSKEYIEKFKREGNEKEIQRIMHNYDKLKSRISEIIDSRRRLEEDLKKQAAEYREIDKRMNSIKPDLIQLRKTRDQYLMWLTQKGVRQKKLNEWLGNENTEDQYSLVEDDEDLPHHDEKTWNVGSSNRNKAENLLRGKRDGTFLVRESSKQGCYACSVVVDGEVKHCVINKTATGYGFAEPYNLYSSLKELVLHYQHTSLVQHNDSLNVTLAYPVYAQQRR

In the case of `C[C@H](Nc1ccc2c(c1)OCCn1cc(N3C(=O)OC[C@H]3C(F)F)nc1-2)C(N)=O` [GDC-0077], the “p110a degradation at clinically relevant concentrations” value [1] is reported as “resulted in p110a degradation”, the “fold difference between the mean IC50 values, GDC-0077 versus BYL719” value [2] is reported as roughly 6 fold and the “fold difference between the mean IC50 values, GDC-0077 versus BYL719” value [3] is reported as roughly 20 fold. For the same molecule, the “p110a protein expression in HCC1954 xenograft tumors” value ([4]; single oral dose of 50 mg/kg) was “depleted p110a protein expression for up to 8 hours”, the “cytotoxic effects in primary human hepatocytes” value (“cytotoxic effects” for short) [5] was “no cytotoxic effects” and the “GDC-0077 concentrations giving negative GR values (cytotoxic response)” value [6] was no less than 0.12 µmol/L. For the same molecule, the “pAKT / pathway inhibition over the 24-hour treatment time” value [7] was “sustained inhibition of pAKT; also recorded: sustained pathway inhibition”, the “mutant-specific (H1047R) p110a peptide by mass spectrometry” value [8] was “loss of the mutant-specific peptide” and the “tumor response at the MTD in PIK3CA-mutant xenograft and PDX models” value [9] was “tumor regressions”. For the same molecule, the “drug–drug interactions” value [10] was “No drug–drug interactions were observed”.
In the case of `CS(=O)(=O)N1CCN(Cc2cc3nc(-c4cccc5[nH]ncc45)nc(N4CCOCC4)c3s2)CC1` [Pictilisib, 2-(1H-indazol-4-yl)-6-(4-methanesulfonyl-piperazin-1-ylmethyl)-4-morpholin-4-yl-thieno[3,2-d]pyrimidine], the “potency differential in mutant versus WT isogenic SW48 cells” value (“potency differential” below) [11] is reported as “comparable EC50”.
With `CC(C)n1ncnc1-c1cn2c(n1)-c1ccc(O[C@@H](C)C(N)=O)cc1OCC2` [GNE-326, (S)-2-((2-(1-Isopropyl-1H-1,2,4-triazol-5-yl)-5,6-dihydrobenzo[f]imidazo[1,2-d][1,4]oxazepin-9-yl)oxy)propanamide] the “potency differential” value [11] was “not have a potency differential”.
For `Cc1nc(-c2cn3c(n2)-c2ccc(-c4cnn(C(C)(C)C(N)=O)c4)cc2OCC3)n(C(C)C)n1` [Taselisib], the “p110a degradation at clinically relevant concentrations” value [1] was “resulted in p110a degradation”, the “membrane-associated p110a in HCC1954 xenograft tumors” value ([4]; 4 hours after a single oral dose of 15 mg/kg) was “depleted” and the “cytotoxic effects” value [5] was “no cytotoxic effects”. For the same molecule, the “potency (EC50) increase in PIK3CA-mutant cells versus parental WT SW48 cells” value ([11]; H1047R or E545K knock-in versus parental) was 3 fold, the “mutant-specific (H1047R) p110a peptide by mass spectrometry” value [8] was “loss of the mutant-specific peptide” and the “p110a protein level in HCC1954 cells” value [12] was “dose-dependent depletion of p110a protein”. The “p110a protein level in HDQ-P1 cells” value [13] was “No significant change”.
For `Cc1nc(NC(=O)N2CCC[C@H]2C(N)=O)sc1-c1ccnc(C(C)(C)C(F)(F)F)c1` [Alpelisib, reference compound], the “cytotoxic effects” value [5] was “no cytotoxic effects” and the “potency differential” value [11] was “not have a potency differential”.
